{"source": "patent US9289433B2", "about": "“Proteasome inhibitors and uses thereof” (Yeda Research and Development Co. Ltd., priority 2009, dated 2016)", "key": {"proteasome [1]": {"target": "T1, proteasome (Homo sapiens, UniProt P28072+P28074+Q99436)", "T1 construct": "endogenous in cells; host or cells: H1299-PIR (H1299 stably expressing the p53-YFP reporter)", "experiment": "Image-based PIR nuclear translocation assay in H1299-PIR reporter cells", "assay_type": "cell-based", "conditions": "for PIR nuclear translocation upon treatment with known proteasome inhibitors: H1299-PIR cells, 6 hours, microscopy; for PIR nuclear translocation in the NCI Diversity Set screen: 1 and 10 μM, 12 hours incubation", "description": "To construct a YFP-tagged Proteasome Inhibitor Reporter (PIR) protein, cDNA encoding a full-length human p53 R175H mutant was amplified by PCR from a cDNA clone, and three consecutive lysine residues in the bipartite Nuclear Localization Signal (NLS) were replaced with alanines by PCR-based, site-directed mutagenesis [Higuchi R, et al., (1988) Nucleic Acids Res 16: 7351-7367; Ho S N, et al (1989) Gene 77: 51-59]. The DNA fragment was cloned into the BglII and NotI sites of pLPCX retroviral vector (Clontech) in-frame to the N-terminus of the yellow fluorescent protein (YFP), using the NotI/ClaI restriction sites. The PIR protein was expressed in an H1299 non-small cell lung carcinoma cell line, following retroviral infection, and the cells were cultured in RPMI 1640 medium containing 10% fetal bovine serum, 2 mM glutamine and 1% penicillin-streptomycin (all from Sigma-Aldrich) in a humidified atmosphere of 5% CO2 at 37° C. Fluorescent cells were isolated by flow cytometry, and single-cell cloning was used to generate a morphologically uniform cell population.\nPIR-expressing H1299 cells were seeded at a density of 800 cells per well in 384-well assay plates (F-bottom, μClear, black, tissue-culture-treated) (Greiner Bio-One). Cells were cultured for 24 hours and treated with the library compounds at two concentrations (1 and 10 μM) in RPMI 1640. In each assay plate, cells in 24 wells treated with 0.2% DMSO alone were used as controls. […] Following 12 hours of incubation, cells were fixed in 3% paraformaldehyde for 20 minutes, then washed with PBS and screened for localization of the PIR protein.\nWiScan™ Cell Imaging System (Idea Bio-Medical) was used for this screen [Paran Y et al., 2006, Methods Enzymol 414: 228-247]. The system is based on an IX71 microscope (Olympus), equipped with a fast laser AutoFocus device and an automated stage. Thirty-six fields were acquired from every well using a 60×/0.9 air objective, stored, and tiled into montages to detect consistent effects. Scoring of the nuclear translocation of the fluorescent PIR protein was carried out manually.\nThe cells were then fixed and scored for nuclear translocation of PIR."}, "proteasome [2]": {"target": "T1, proteasome", "conditions": "after 20 hours of treatment, flow cytometry; cited from earlier work"}, "[3]": {"target": "proteasome β2, β1 and β5 activities (Homo sapiens, UniProt P28072+P28074+Q99436)", "sequence (Q99436 44-277)": "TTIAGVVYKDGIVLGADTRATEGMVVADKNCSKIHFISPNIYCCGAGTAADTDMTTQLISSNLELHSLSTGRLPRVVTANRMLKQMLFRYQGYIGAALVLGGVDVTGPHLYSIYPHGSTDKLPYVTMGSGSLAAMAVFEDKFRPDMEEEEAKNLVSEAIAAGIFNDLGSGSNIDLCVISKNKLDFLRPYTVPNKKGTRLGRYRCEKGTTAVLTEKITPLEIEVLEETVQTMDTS", "sequence (P28072 whole entry)": "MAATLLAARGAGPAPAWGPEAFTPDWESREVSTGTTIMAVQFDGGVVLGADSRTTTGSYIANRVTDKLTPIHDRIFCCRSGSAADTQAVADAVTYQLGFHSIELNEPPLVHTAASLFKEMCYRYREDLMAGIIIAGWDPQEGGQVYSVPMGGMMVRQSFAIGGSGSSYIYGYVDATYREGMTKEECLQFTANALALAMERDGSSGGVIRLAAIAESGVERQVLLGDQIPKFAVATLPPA", "sequence (P28074 60-263)": "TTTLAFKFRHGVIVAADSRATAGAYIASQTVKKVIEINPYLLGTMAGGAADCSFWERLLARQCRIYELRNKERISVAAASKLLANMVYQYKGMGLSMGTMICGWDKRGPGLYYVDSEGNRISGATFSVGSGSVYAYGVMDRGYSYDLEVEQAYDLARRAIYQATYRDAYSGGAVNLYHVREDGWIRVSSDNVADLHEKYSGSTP", "sequence (P49720 whole entry partner)": "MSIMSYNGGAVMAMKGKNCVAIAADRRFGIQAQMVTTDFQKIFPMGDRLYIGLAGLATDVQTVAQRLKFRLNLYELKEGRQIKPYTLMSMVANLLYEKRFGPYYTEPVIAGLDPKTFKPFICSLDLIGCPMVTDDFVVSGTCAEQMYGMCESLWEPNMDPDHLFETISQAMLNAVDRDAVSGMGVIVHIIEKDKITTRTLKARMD", "experiment": "Inhibition of tryptic-, caspase- and chymotrypsin-like proteasome activities", "assay_type": "biochemical"}, "PIR-H1299 cells": {"system": "PIR-H1299 cells", "experiment": "AlamarBlue cell viability assay", "assay_type": "cell-based, human", "conditions": "48 hours, 0.1 to 100 μM", "procedure": "The effect of each hit compound on cell viability was tested at 11 different concentrations, ranging from 0.1-100 μM. PIR cells were plated onto 384-well microplates for 24 hours, and then treated for 48 h with the library compounds. Cell viability was determined using the colorimetric AlamarBlue® (Invitrogen) viability assay, according to the manufacturer's instructions.\nProteasome inhibitors are known to be particularly cytotoxic to malignant cells via multiple mechanisms. To directly test the effects of the new proteasome inhibitors discovered in this study on cell viability, PIR-expressing H1299 cells were treated for 48 hours with each of the four compounds, at a wide range of concentrations, ranging from 0.1 to 100 μM. The cells were then subjected to an Alamar Blue viability assay, which quantifies the number of metabolically active cells. […] For all proteasome inhibitors examined in this screen, there was a high correlation between proteasomal inhibitory activity and cell viability."}, "MDA-MB-231 cells": {"system": "MDA-MB-231 cells", "experiment": "Cell viability, malignant breast carcinoma cells", "assay_type": "cell-based, human"}, "[4]": {"system": "NCI-60 panel of human tumor cell lines", "conditions": "molar concentration, cited from earlier work; for average −log10 GI50 over the panel: all NCI-60 cell lines; for overall −log10 GI50, leukemia cells: leukemia subpanel"}, "[5]": {"system": "purified rabbit 26S proteasomes", "experiment": "In vitro proteasome activity assay, Suc-LLVY-AMC degradation", "assay_type": "biochemical", "conditions": "MG132 control at 5 μM", "procedure": "For measuring proteasome activity, purified 20S or 26S proteasomes prepared from rabbit muscles were incubated at a final concentration of 16 nM, with 100 μM fluorogenic 7-amido-4-methylcoumarin (AMC) tetrapeptide substrate Suc-LLVY-AMC (Bachem) and the stated concentration of the hit compounds in the presence of 100 μl of assay buffer (50 mM Hepes, 5 mM MgCl2, 2 mM ATP and 1 mM DTT). […] The time-dependent increase of hydrolyzed AMC groups was measured in a 96-well plate equilibrated to 37° C., using a Varioscan multi-well plate reader (Thermo Fisher Scientific, Inc.) in a kinetic mode, in which the recording intervals were set to 1 minute. The excitation wavelength was 370 nm; fluorescence emission was recorded at 465 nm.\nTo directly test the capacity of the four compounds to inhibit activity in mammalian proteasomes, an in vitro activity assay was performed in which the hit compounds were tested for their effects on the degradation of the model fluorogenic tetrapeptide LLVY-AMC by purified rabbit 26S proteasomes."}, "proteasome [6]": {"target": "T1, proteasome", "experiment": "Western blot for accumulation of polyubiquitinated proteins and β-catenin in H1299-PIR cells", "assay_type": "cell-based", "conditions": "6 hours", "procedure": "H1299-PIR cells were lysed with radioimmune precipitation assay buffer (1% NP-40, 1% sodium deoxycholate, 0.1% SDS, 150 mM NaCl, 50 mM Tris, pH 8.0) containing a protease inhibitor cocktail from Roche Applied Science. Protein extracts were subjected to 8% SDS-PAGE, transferred to a nitrocellulose membrane (Whatman), and probed with monoclonal anti-p53 (DO1, Santa Cruz Biotechnology), anti-ubiquitin (Covance), anti-β-catenin (Sigma) and anti-β-tubulin (Sigma) primary antibodies.\nOne characteristic outcome of proteasome inhibition is the accumulation of ubiquitinated proteins in the treated cells. […] Following incubation, cell extracts were analyzed by Western blot, using anti-ubiquitin and anti-β-catenin antibodies."}, "MCF10A": {"system": "MCF10A", "experiment": "Cell viability, normal breast epithelial cell line", "assay_type": "cell-based, human", "conditions": "considerably higher concentration than for MDA-MB-231"}}, "note": "Non-standard residues stand in square brackets, D forms with d. Residues, ends and D or L forms follow the SMILES beside them. *: point of attachment. Nle = CCCC[C@H](N)C(=O)O; Cbz = O=C(OCc1ccccc1)*", "data": [{"compound": "CC(C)C[C@H](NC(=O)[C@H](Cc1ccccc1)NC(=O)c1cnccn1)B(O)O", "note": "[Bortezomib, Pyz-Phe-boroLeu, reference compound]", "values": [{"measurement": "PIR nuclear translocation upon treatment with known proteasome inhibitors", "setting": "proteasome [1]", "result": "PIR translocates into the nucleus"}]}, {"compound": "CC(C)C[C@@H](C=O)NC(=O)[C@H](CC(C)C)NC(=O)[C@H](CC(C)C)NC(=O)OCc1ccccc1", "note": "[MG132, reference compound] (Cbz-Leu-Leu-Leu-aldehyde)", "values": [{"measurement": "PIR nuclear translocation upon treatment with known proteasome inhibitors", "setting": "proteasome [1]", "result": "PIR translocates into the nucleus"}, {"measurement": "concentration at which MG132 is detected", "setting": "proteasome [2]", "result": 2.5, "unit": "µM"}]}, {"compound": "CSC(=[SH+])[N-]N=C(c1ccccn1)c1ccccn1.[Cu][Br]", "note": "[NSC321206]", "values": [{"measurement": "inhibition of Tryptic like (β2), Caspase like (β1) and Chymotrypsin like (β5) activities of the proteasome", "setting": "[3]", "result": "observed inhibition"}, {"measurement": "GI50", "setting": "PIR-H1299 cells", "result": 170, "unit": "nM"}, {"measurement": "PIR nuclear translocation in the NCI Diversity Set screen", "setting": "proteasome [1]", "result": "positive in the assay"}, {"measurement": "GI50", "setting": "MDA-MB-231 cells; MDA-MB-231", "result": 400, "unit": "nM"}, {"measurement": "effect on cell viability", "setting": "MDA-MB-231 cells; MDA-MB-231, 1 μM", "result": "effectively eliminated all MDA-MB-231 cells"}, {"measurement": "average −log10 GI50 over the panel", "setting": "[4]", "result": 7.2}, {"measurement": "overall −log10 GI50, leukemia cells", "setting": "[4]", "result": 7.73}, {"measurement": "inhibition of LLVY-AMC degradation by purified 26S proteasome", "setting": "[5]; 30 μM compound", "result": "levels of inhibition comparable to that of MG132"}, {"measurement": "accumulation of polyubiquitinated proteins and β-catenin (inhibitory effect on proteasomal degradation)", "setting": "proteasome [6]; 0.15 μM", "result": "inhibitory activity comparable to that of 5 μM MG132"}, {"measurement": "effect on cell viability", "setting": "MCF10A", "result": "only partially affected"}]}, {"compound": "CCCC[C@@H](C=O)NC(=O)[C@H](CC(C)C)NC(=O)[C@H](CC(C)C)NC(C)=O", "note": "[ALLN, reference compound] (Ac-Leu-Leu-[Nle]-aldehyde)", "values": [{"measurement": "PIR nuclear translocation upon treatment with known proteasome inhibitors", "setting": "proteasome [1]", "result": "PIR translocates into the nucleus"}]}, {"compound": "8-Quinolinol salicylate [NSC3907]", "values": [{"measurement": "GI50", "setting": "PIR-H1299 cells", "result": 47000, "unit": "nM"}, {"measurement": "PIR nuclear translocation in the NCI Diversity Set screen", "setting": "proteasome [1]", "result": "positive in the assay"}, {"measurement": "average −log10 GI50 over the panel", "setting": "[4]", "result": 5.3}, {"measurement": "overall −log10 GI50, leukemia cells", "setting": "[4]", "result": 6.249}, {"measurement": "inhibition of LLVY-AMC degradation by purified 26S proteasome", "setting": "[5]; 100 μM compound", "result": "only a minor effect"}, {"measurement": "accumulation of polyubiquitinated proteins and β-catenin (inhibitory effect on proteasomal degradation)", "setting": "proteasome [6]; 20 μM", "result": "less of an inhibitory effect"}]}, {"compound": "CS/C([S-])=N/N=C/c1cccc(C)n1.CS/C([S-])=N/N=C/c1cccc(C)n1.[Cu+2]", "note": "[NSC310551]", "values": [{"measurement": "GI50", "setting": "PIR-H1299 cells", "result": 270, "unit": "nM"}, {"measurement": "PIR nuclear translocation in the NCI Diversity Set screen", "setting": "proteasome [1]", "result": "positive in the assay"}, {"measurement": "average −log10 GI50 over the panel", "setting": "[4]", "result": 6.6}, {"measurement": "overall −log10 GI50, leukemia cells", "setting": "[4]", "result": 7.028}, {"measurement": "inhibition of LLVY-AMC degradation by purified 26S proteasome", "setting": "[5]; 30 μM compound", "result": "levels of inhibition comparable to that of MG132"}, {"measurement": "accumulation of polyubiquitinated proteins and β-catenin (inhibitory effect on proteasomal degradation)", "setting": "proteasome [6]; 0.3 μM", "result": "inhibitory activity comparable to that of 5 μM MG132"}]}, {"compound": "NC(CCC(=O)O)C(=O)O", "note": "(centres unmarked) [NSC99671]", "values": [{"measurement": "GI50", "setting": "PIR-H1299 cells", "result": 96000, "unit": "nM"}, {"measurement": "PIR nuclear translocation in the NCI Diversity Set screen", "setting": "proteasome [1]", "result": "positive in the assay"}, {"measurement": "average −log10 GI50 over the panel", "setting": "[4]", "result": 4.1}, {"measurement": "overall −log10 GI50, leukemia cells", "setting": "[4]", "result": 4.473}, {"measurement": "inhibition of LLVY-AMC degradation by purified 26S proteasome", "setting": "[5]; 30 μM compound", "result": "moderate inhibitory effect"}, {"measurement": "accumulation of polyubiquitinated proteins and β-catenin (inhibitory effect on proteasomal degradation)", "setting": "proteasome [6]; 50 μM", "result": "less of an inhibitory effect"}]}]}
